# Data from patent publication US9333202B2, “Non-retinoid antagonists for treatment of age-related macular degeneration and stargardt disease” (THE TRUSTEES OF COLUMBIA UNIVERSITY IN THE CITY OF NEW YORK, priority 2012, dated 2016).
# “Also recorded” adds a separate entry of the source.
# What was measured:
# [1] = tested on: serum RBP4; test: Serum RBP4 measurement (ELISA) in mice after oral dosing; assay type: in vivo, mouse
# Procedure: The Abca4−/− mouse model manifests accelerated accumulation of lipofuscin in the RPE and is considered a pre-clinical efficacy model for a drug reducing lipofuscin accumulation.
# (§1) Ten week-old Abca4 null mutant mice (129/SV×C57BL/6J) bred as previously described were used in the study. Abca4−/− (knockout) and Abca4+/+(wild-type) mice were raised under 12 h on-off cyclic lighting with an in-cage illuminance of 30-50 lux. For long-term oral dosing A1120 was formulated into Purina 5035 rodent chow at Research Diets, Inc. (New Brunswick, N.J.) to ensure consistent 30 mg/kg daily oral dosing. Animals were administered the A1120-containing chow for 6 weeks.
# Blood samples were collected from a tail vein at days 0, 21 and 42 of the A1120 dosing. Whole blood was drawn into a centrifuge tube and was let clot at room temperature for 30 min followed by centrifugation at 2,000×g for 15 minutes at +4° C. to collect serum. Serum RBP4 was measured using the RBP4 (mouse/rat) dual ELISA kit (Enzo Life Sciences) following the manufacturer's instructions.
# (§2) Blood samples collected from the treatment and control groups at baseline, Day 21 and Day 42 were used to measure serum RBP4 in order to correlate RBP4 levels with reduction in formation of lipofuscin bisretinoids. […] Levels of lipofuscin fluorophores (A2E, A2-DHP-PE and all-trans-retinal dimer-PE) were determined at the end of the 42-day treatment period using quantitative HPLC.
# [2] = target: T1, RBP4-TTR interaction (Homo sapiens, UniProt P02753); test: HTRF/TR-FRET assay for retinol-dependent RBP4-TTR interaction (1 μM retinol); assay type: biochemical; set-up: human RBP4 fragment (amino acids 19-201) was expressed in the Gold(DE3)pLysS E. coli strain; made in house; host or cells: E. coli Gold(DE3)pLysS (Stratagene), pMAL-c4x vector
# Description: Bacterially expressed MBP-RBP4 and untagged TTR were used in this assay. For the use in the TR-FRET assay the maltose binding protein (MBP)-tagged human RBP4 fragment (amino acids 19-201) was expressed in the Gold(DE3)pLysS E. coli strain (Stratagene) using the […] vector. Following cell lysis, recombinant RBP4 was purified from the soluble fraction using the ACTA FPLC system (GE Healthcare) equipped with the 5-ml the MBP Trap HP column. Human untagged TTR was purchased from Calbiochem. Untagged TTR was labeled directly with Eu^3+ Cryptate-NHS using the HTRF Cryptate Labeling kit from CisBio following the manufacturer's recommendations. HTRF assay was performed in white low volume 384 well plates (Greiner-Bio) in a final assay volume of 16 μl per well. The reaction buffer contained 10 mM Tris-HCl pH 7.5, 1 mM DTT, 0.05% NP-40, 0.05% Prionex, 6% glycerol, and 400 mM KF. Each reaction contained 60 nM MBP-RBP4 and 2 nM TTR-Eu along with 26.7 nM of anti-MBP antibody conjugated with d2 (Cisbio). Titration of test compounds in this assay was conducted in the presence of 1 μM retinol. All reactions were assembled in the dark under dim red light and incubated overnight at +4° C. wrapped in aluminum foil. TR-FRET signal was measured in the SpectraMax M5e Multimode Plate Reader (Molecular Device). Fluorescence was excited at 337 nm and two readings per well were taken: Reading 1 for time-gated energy transfer from Eu(K) to d2 (337 nm excitation, 668 nm emission, counting delay 75 microseconds, counting window 100 microseconds) and Reading 2 for Eu(K) time-gated fluorescence (337 nm excitation, 620 nm emission, counting delay 400 microseconds, counting window 400 microseconds). The TR-FRET signal was expressed as the ratio of fluorescence intensity: Flu665/Flu620×10,000.
# [3] = tested on: insulin sensitivity; details: mouse diabetes models; cited from earlier work
# [4] = tested on: ERG b-wave; test: ERG b-wave after photobleaching; details: in vivo
# [5] = target: T1, RBP4-TTR interaction; test: TR-FRET (HTRF) assay for antagonists of retinol-induced RBP4-TTR interaction, agonist and antagonist mode (Example 2); assay type: biochemical; set-up: made in house; host or cells: E. coli; details: agonist mode, dose titration
# Description: TR-FRET (Time-Resolved Fluorescence Resonance Energy Transfer) is an assay format that can be used in characterization of compounds affecting protein-protein interactions (31-33). […] In the presence of retinol, RBP4-TTR interaction induces FRET that can be registered as increased ratio of […] fluorescence signals. Binding of a desired RBP4 antagonist displaces retinol and induces hindrance for RBP4-TTR interaction resulting in the decreased FRET signal (FIG. 7).
# The assay was developed using E. coli-expressed MBP-tagged RBP4 and commercially available TTR labeled directly with Eu3+ cryptate. In addition to MBP-RBP4 and Eu3+ (K)-TTR, a detector reagent anti-MBP-d2 was present in the mix. The assay was first optimized in the agonist mode; sensitivity and dynamic range of the assay was […] in respect to RBP4, TTR and detection reagent concentrations.
# [6] = Observation of toxicity signs during 6 week chronic dosing; assay type: in vivo; details: 6 week-long chronic dosing, 30 mg/kg daily oral
# Procedure: as §1
# as §2, with “To determine whether A1120 has an effect on retinal production of lipofuscin fluorophores we administered the compound at the daily 30 mg/kg dose to Abca4−/− mice for a period of 6 weeks. Blood” for “Blood”
# Administration of A1120 reduces the production of A2E, A2-DHP-PE, and atRAL di-PE in A1120-treated Abca4−/− mice in comparison to the vehicle-treated Abca4−/− animals by approximately 50%.
# [7] = Abca4−/− mice, 30 mg/kg daily oral in chow
smiles,measurement,setting,value
"O=C(O)c1ccccc1NC(=O)N1CCC(c2ccccc2C(F)(F)F)CC1 [Compound 1, 2(4-(2-(trifluoromethyl)phenyl)piperidine-1-carboxamido)benzoic acid]",Serum RBP4 reduction at Week 3 / Day 21 compared with Day 0,[1]; [7],64%
same,Serum RBP4 reduction at Week 6 / Day 42 compared with Day 0,[1]; [7],75%
same,Effect on serum RBP4 levels (in words),"[1]; mouse, in vivo",reduce serum REBP4 levels
same,Reduction in the serum RBP4 level,"[1]; orally dosed for 3 weeks at 30 mg/kg, treated animals (Example 3)",~70%
same,Antagonism of RBP4-TTR interaction in vitro (in words),[2],antagonize retinol-dependent RBP4-TTR interaction; also recorded: disrupt retinol-induced RBP4-TTR interaction; also recorded: antagonize RBP4-TTR interaction in vitro at biologically significant concentrations
same,Effect on insulin sensitivity,[3],did not improve insulin sensitivity
same,Effect on ERG b-wave after photobleaching,[4],does not reduce ERG b-wave after photobleaching
same,Induction of RBP4-TTR interaction,[5],did not induce RBP4-TTR interaction
same,Signs of compound toxicity such as weight loss or reduction in food consumption,[6],did not note any obvious signs of compound toxicity
